Among the data in patent US7618990B2, “Oxazolidone derivatives as PR modulators” (Wyeth, priority 2006, dated 2009) are IC50, melting point and inhibition values, retold here.

The subject of data set [1] is alkaline phosphatase activity in T47D cells. In words: Effects of progestins and antiprogestins on alkaline phosphatase activity in T47D cells (antagonist mode). Type of data set: cell-based. Conditions: Homo sapiens, in the presence of 1 nM progesterone, read-out: T47D Alkaline Phosphatase Activity IC50 (nM) or % inhibition; for IC50: 24 h; for inhibition at 3 µM: % inhibition at 3000 nM. How it is done:
(1) Effects of Progestins and Antiprogestins on Alkaline Phosphatase Activity in T47D Cells
PURPOSE: To identify progestins or antiprogestins by determining a compound's effect on alkaline phosphatase activity in T47D cells.
Culture Medium: • DMEM:F12 (1:1) (GIBCO, BRL) supplemented with 5% (v/v) charcoal stripped fetal bovine serum (not heat-inactivated), 100 U/mL penicillin, 100 μg/mL streptomycin, and 2 mM the GlutaMax™ reagent (GIBCO, BRL).
Alkaline Phosphatase Assay Buffer: • I. 0.1M Tris-HCl, pH 9.8, containing 0.2% the Triton® X-100 reagent • II. 0.1M Tris-HCl, pH 9.8, containing 4 mM p-nitrophenyl phosphate (Sigma). B. Cell Culture and Treatment:
Frozen T47D cells were thawed in a 37° C. water bath and diluted to 280,000 cells/mL in culture medium. To each well in a 96-well plate (Falcon, Becton Dickinson Labware), 180 μL of diluted cell suspension was added.
Twenty μL of reference or test compounds diluted in the culture medium was then added to each well. When testing for progestin antagonist activity, reference antiprogestins or test compounds were added in the presence of 1 nM progesterone. The cells were incubated at 37° C. in a 5% CO2/humidified atmosphere for 24 h.
NOTE: For high throughput screening, one concentration of each compound was tested at 0.3 μg/mL. Based on an average molecular weight of 300 g/mol for the compounds in the library, the concentration was approximately 1 μM. Subsequently, active compounds were tested in dose response assays to determine EC50 and IC50. C. Alkaline Phosphatase Enzyme Assay:
At the end of treatment, the medium was removed from the plate. Fifty μL of assay buffer I was added to each well. The plates were shaken in a titer plate shaker for 15 min. Then 150 μL of assay buffer II was added to each well. Optical density measurements were taken at 5 min intervals for 30 min at a test wavelength of 405 nm.
For reference and test compounds, a dose response curve was generated for dose (X-axis) vs. the rate of enzyme reaction (slope) (Y-axis). Square root-transformed data was used for analysis of variance and nonlinear dose response curve fitting for both agonist and antagonist modes. Huber weighting was used to down-weight the effects of outliers. EC50 or IC50 values were calculated from the retransformed values. JMP software (SAS Institute, Inc.) was used for both one-way analysis of variance and non-linear dose response analysis in both single dose and dose response studies.
Progesterone and trimegestone were reference progestins and RU486 was the reference antiprogestin. All reference compounds were run in full dose response curves and the EC50 and IC50 values were calculated.

What is called IC50 is the concentration at which inhibition is half-maximal. As usually defined, the melting point is the temperature of the solid-liquid transition. Compound `CCCC1COC(=O)N1c1nc(-c2ccc(Br)cc2)cs1` (centres unmarked) [Example 29, 3-[4-(4-Bromophenyl)-1,3-thiazol-2-yl]-4-propyl-1,3-oxazolidin-2-one] returned a melting point of 156 to 157 °C. Also, the IC50 in data set [1] is 88.8 nM.

In the case of `O=C1OCC(CC(F)(F)F)N1c1nc(-c2ccc(Br)cc2)cs1` (centres unmarked) [Example 67, 3-[4-(4-Bromophenyl)-1,3-thiazol-2-yl]-4-(2,2,2-trifluoroethyl)-1,3-oxazolidin-2-one], the melting point fell in the range of 163 to 165 °C. In data set [1], the IC50 came out at 95.5 nM.

For `CC1(C)COC(=O)N1c1nc(-c2csc(C#N)c2)cs1` [Example 61, 4-[2-(4,4-Dimethyl-2-oxo-1,3-oxazolidin-3-yl)-1,3-thiazol-4-yl]thiophene-2-carbonitrile], the melting point lay within 249 to 251.5 °C. Also, in data set [1], the IC50 came out at 37.8 nM.

Compound `CCC1(CC)COC(=O)N1c1nc(-c2ccc(C#N)cc2)cs1` [Example 19, 4-[2-(4,4-Diethyl-2-oxo-1,3-oxazolidin-3-yl)-1,3-thiazol-4-yl]benzonitrile] registered a melting point of 145 to 147 °C. For the same compound, the half-maximal inhibitory concentration (IC50) in data set [1] stood at 0.45 nM.

`O=C1OC[C@@H](CO)N1c1nc(-c2ccc(Br)cc2)cs1` [Example 71, (4R)-3-[4-(4-Bromophenyl)-1,3-thiazol-2-yl]-4-(hydroxymethyl)-1,3-oxazolidin-2-one]: the melting point was 189 to 192 °C. The IC50 in data set [1] was 565 nM.

For the compound `CC[C@H]1COC(=O)N1c1nc(-c2ccc(C#N)cc2)c(F)s1` [Example 12, 4-{2-[(4S)-4-Ethyl-2-oxo-1,3-oxazolidin-3-yl]-5-fluoro-1,3-thiazol-4-yl}benzonitrile], the melting point lay within 157 to 159 °C. The IC50 in data set [1] came to 23.3 nM.

As for `N#Cc1ccc(-c2csc(N3C(=O)OCC34CCCC4)n2)cc1` [Example 47, 4-[2-(2-Oxo-3-oxa-1-azaspiro[4.4]non-1-yl)-1,3-thiazol-4-yl]benzonitrile], the melting point was 196 to 198 °C. For the same compound, the 50% inhibitory concentration (IC50) in data set [1] was 45.4 nM.

Regarding `CC1(C)COC(=O)N(c2nc(-c3ccc(Br)cc3)cs2)C1` [Example 39, 3-[4-(4-Bromophenyl)-1,3-thiazol-2-yl]-5,5-dimethyl-1,3-oxazinan-2-one], the melting point lay in the range of 169 to 171 °C. Further, the IC50 in data set [1] is 1370 nM.

Compound `N#Cc1ccc(-c2nc(N3C(=O)OCC34CC4)sc2F)cc1` [Example 55, 4-[5-Fluoro-2-(5-oxo-6-oxa-4-azaspiro[2.4]hept-4-yl)-1,3-thiazol-4-yl]benzonitrile] returned a melting point of 222 to 224 °C. The IC50 in data set [1] worked out at 41.9 nM.

On to `N#Cc1ccc(-c2csc(N3C(=O)OC[C@H]3c3ccccc3)n2)cc1` [Example 45, 4-{2-[(4R)-2-Oxo-4-phenyl-1,3-oxazolidin-3-yl]-1,3-thiazol-4-yl}benzonitrile], for which the melting point fell in the range of 243 to 245 °C. Besides, the IC50 in data set [1] worked out at 166 nM.

In the case of `CC[C@H]1COC(=O)N1c1nc(-c2ccc(Br)cc2)c(Cl)s1` [Example 13, (4S)-3-[4-(4-Bromophenyl)-5-chloro-1,3-thiazol-2-yl]-4-ethyl-1,3-oxazolidin-2-one], the melting point lay in the range of 137 to 139 °C. The IC50 in data set [1] was 124 nM.

For orientation: inhibition means how much of the control response was suppressed. `CCC1(CC)COC(=O)N1c1nc(-c2ccc(C#N)cc2)c(F)s1` [Example 53, 4-[2-(4,4-Diethyl-2-oxo-1,3-oxazolidin-3-yl)-5-fluoro-1,3-thiazol-4-yl]benzonitrile]: the melting point was in the range of 151 to 153 °C. The inhibition at 0.003 µM in data set [1] (% inhibition at 3 nM) stood at 40%.

With `O=C1OCC2(CC2)N1c1nc(-c2ccc(Br)cc2)cs1` [Example 24, 4-[4-(4-Bromophenyl)-1,3-thiazol-2-yl]-6-oxa-4-azaspiro[2.4]heptane-5-one], the melting point was in the range of 201 to 202 °C. In addition, the IC50 in data set [1] was found to be 292 nM.

In the case of `N#Cc1ccc(-c2csc(N3C(=O)OCC34CC4)n2)cc1` [Example 25, 4-[2-(5-oxo-6-oxa-4-azaspiro[2.4]hept-4-yl)-1,3-thiazol-4-yl]benzonitrile], the melting point lay in the range of 219 to 221 °C. In addition, the IC50 in data set [1] was found to be 21.6 nM.

`O=C1OCCCN1c1nc(-c2ccc(Br)cc2)cs1` [Example 33, 3-[4-(4-Bromophenyl)-1,3-thiazol-2-yl]-1,3-oxazinan-2-one] showed a melting point of 225 to 227 °C. For the same compound, the IC50 in data set [1] was determined as 238 nM.

In turn, `Cc1sc(N2C(=O)OCC2(C)C)nc1-c1ccc(C#N)cc1` [Example 57, 4-[2-(4,4-Dimethyl-2-oxo-1,3-oxazolidin-3-yl)-5-methyl-1,3-thiazol-4-yl]benzonitrile] gave a melting point of 192.5 to 193 °C. Besides, the IC50 in data set [1] was 101 nM.

Compound `COC(=O)[C@@H]1COC(=O)N1c1nc(-c2ccc(Br)cc2)cs1` [Example 70, Methyl (4S)-3-[4-(4-bromophenyl)-1,3-thiazol-2-yl]-2-oxo-1,3-oxazolidine-4-carboxylate] returned a melting point of 165 to 167 °C. The inhibition at 3 µM in data set [1] came out at 90%.

In turn, `Cc1sc(N2C(=O)OCC2(C)C)nc1-c1ccc(Br)cc1` [Example 56, 3-[4-(4-Bromophenyl)-5-methyl-1,3-thiazol-2-yl]-4,4-dimethyl-1,3-oxazolidin-2-one] registered a melting point of 175 to 176.5 °C. Further, in data set [1], the IC50 came to 437 nM.

In turn, `CC[C@H]1COC(=O)N1c1nc(-c2ccc(C#N)cc2)c(C#N)s1` [Example 15, 4-(4-Cyanophenyl)-2-[(4S)-4-ethyl-2-oxo-1,3-oxazolidin-3-yl]-1,3-thiazole-5-carbonitrile] registered a melting point of 201 to 203 °C. In data set [1], the IC50 came out at 144 nM.

In turn, `CCC1CN(c2nc(-c3ccc(Br)cc3)cs2)C(=O)O1` (centres unmarked) [Example 32, 3-[4-(4-Bromophenyl)-1,3-thiazol-2-yl]-5-ethyl-1,3-oxazolidin-2-one] displayed a melting point of 141 to 142 °C. Also, in data set [1], the IC50 was determined as 407 nM.

`N#Cc1ccc(-c2csc(N3C(=O)OC[C@H]3Cc3ccccc3)n2)cc1` [Example 44, 4-{2-[(4R)-4-Benzyl-2-oxo-1,3-oxazolidin-3-yl]-1,3-thiazol-4-yl}benzonitrile] registered a melting point of 174 to 176 °C. Further, the IC50 in data set [1] was 191 nM.

Regarding `C[C@@H]1COC(=O)N1c1nc(-c2cccc(C#N)c2)cs1` [Example 17, 3-{2-[(4R)-4-Methyl-2-oxo-1,3-oxazolidin-3-yl]-1,3-thiazol-4-yl}benzonitrile], the melting point was in the range of 187 to 189 °C. Moreover, in data set [1], the inhibition at 3 µM is 84%.

`N#Cc1ccc(-c2csc(N3C(=O)OC[C@@H]3c3ccccc3)n2)cc1` [Example 46, 4-{2-[(4S)-2-Oxo-4-phenyl-1,3-oxazolidin-3-yl]-1,3-thiazol-4-yl}benzonitrile] displayed a melting point of 242 to 244 °C. Besides, the IC50 in data set [1] came out at 194 nM.

Turning to `N#Cc1ccc(-c2csc(N3C(=O)OC[C@H]3CC(F)(F)F)n2)cc1` [Example 69, 4-{2-[(4R)-2-Oxo-4-(2,2,2-trifluoroethyl)-1,3-oxazolidin-3-yl]-1,3-thiazol-4-yl}benzonitrile], the melting point was in the range of 235 to 238 °C. In addition, the IC50 in data set [1] is 63.8 nM.

With `CCC[C@H]1COC(=O)N1c1nc(-c2ccc(Br)cc2)cs1` [Example 22, (4S)-3-[4-(4-Bromophenyl)-1,3-thiazol-2-yl]-4-propyl-1,3-oxazolidin-2-one], the melting point fell in the range of 116 to 118 °C. Moreover, in data set [1], the IC50 stood at 64.3 nM.

As to `N#Cc1ccc(-c2csc(N3C(=O)OC[C@@H]3CC(F)(F)F)n2)cc1` [Example 68, 4-{2-[(4S)-2-Oxo-4-(2,2,2-trifluoroethyl)-1,3-oxazolidin-3-yl]-1,3-thiazol-4-yl}benzonitrile], the melting point is 235 to 238 °C. Further, the IC50 in data set [1] was found to be 29.1 nM.

In turn, `N#Cc1ccc(-c2csc(-n3c(=O)oc4ccccc43)n2)cc1` [Example 54, 4-[2-(2-Oxo-1,3-benzoxazol-3(2H)-yl)-1,3-thiazol-4-yl]benzonitrile] displayed a melting point of 244 to 245 °C. In addition, the inhibition at 3 µM in data set [1] turned out to be 50%.

In turn, `CC1(C)COC(=N)N1c1nc(-c2ccc(C#N)cc2)cs1` [Example 63, 4-[2-(2-imino-4,4-dimethyl-1,3-oxazolidin-3-yl)-1,3-thiazol-4-yl]benzonitrile] returned a melting point of 158 to 161 °C. Further, in data set [1], the 50% inhibitory concentration (IC50) came to 53.4 nM.
